Data from patent US20040146872A1, “Fat regulated genes, uses thereof and compounds for modulating same” (priority 2003, published 2004).

Columns and labels:
Format in all cases: in vivo
SCD2 = test: Northern blot quantification of SCD2 mRNA in liver of rats fed PUFA-supplemented fat free diet; settings: rat liver RNA; female Wistar rats, fat free diet 2 weeks, then fatty acid 5% (w/w) in diet 2 weeks; ± standard deviation of three rats; normalized for 18S; fat free = 100
Excerpt: (§1) The present inventors have identified genes that were modulated or regulated by dietary fat using a differential display technique (Liang P. and Pardee A. B., 1992, Science, 257: 967-971). Groups of female Wistar rats were fed fat free diet for two weeks. After two weeks all groups but one (controls) were supplemented with highly purified PUFAs for an additional two weeks. The rats were sacrificed and tissues were removed to obtain RNA for differential display and Northern blotting. Differential display identified genes regulated by dietary fat by comparing mRNA populations from rat liver. For the study, the rats were divided into six groups and fed fat free diet for 14 days. Each group was fed fat free diet for an additional two weeks with the following supplements: group 1-no supplement (fat free control); group 2-linoleic acid (LA, 18:2n-6); group 3-gamma-linolenic acid (GLA, 18:3n-6); group 4-alpha-linolenic acid (ALA, 18:3n-3); group 5-eicosapentaenoic acid (EPA, 20:5n-3) and group 6-docosahexaenoic acid (DHA, 22:6n-3). Fatty acids were administered in the diet at a fatty acid-specific concentration of 5% (w/w), as described in Example 1. The rats were fed ad libitum. […] The rats were randomly divided into 6 groups and fed fat free diet (Teklad #94013). After 2 weeks, groups 2-6 were fed diets supplemented with highly purified polyunsaturated fatty acids for an additional 2 weeks. The concentration of the specific fatty acid used for each group was 5% (w/w) of the total diet preparation. The experimental design is provided below. Diets were prepared by mixing the oils into the fat free diet. The mixed diet was stored at -20° C. under a nitrogen atmosphere to prevent fatty acid oxidation. Dietary feedings were provided at the same time each day. Diet preparations are shown below. Rats ([…]) were sacrificed via cardiac puncture under anesthesia. The livers were perfused with saline, excised and frozen in liquid nitrogen in preparation for RNA extraction. Total RNA from 0.4 g of each liver was isolated as per manufacturer's protocol using Trizol Reagent (Gibco BRL). In order to remove contaminating genomic DNA, the RNA sample was incubated with RQ1 RNase-free DNase (Promega) for 30 minutes at 37° C. The RNA was subsequently precipitated and resuspended to a final concentration of 0.5 mg/ml. To confirm the expression pattern of the genes as discovered in the differential display experiment and to determine the transcript size of these genes, Northern blot analysis was performed. […] The transfer of the RNA onto the membrane was verified by methylene blue staining. […] The Northern blot was performed following the protocol in Ausubel et al., 1994-, Current Protocols in Molecular Biology, John Wiley & Sons, NY. […]

INSIG1 = test: Northern blot quantification of INSIG1 mRNA in liver of rats fed PUFA-supplemented fat free diet; settings: rat liver RNA; female Wistar rats, fat free diet 2 weeks, then fatty acid 5% (w/w) in diet 2 weeks; ± standard deviation of three rats; normalized for 18S; fat free = 100
Excerpt: as §1

FTF1 = test: Northern blot quantification of FTF1 mRNA in liver of rats fed PUFA-supplemented fat free diet; settings: rat liver RNA; female Wistar rats, fat free diet 2 weeks, then fatty acid 5% (w/w) in diet 2 weeks; ± standard deviation of three rats; not normalized for 18S; fat free = 100
Excerpt: as §1

GLOL = test: Northern blot quantification of GLOL mRNA in liver of rats fed PUFA-supplemented fat free diet; settings: rat liver RNA; female Wistar rats, fat free diet 2 weeks, then fatty acid 5% (w/w) in diet 2 weeks; ± standard deviation of three rats; normalized for 18S; fat free = 100
Excerpt: as §1

SCD1 = test: Northern blot quantification of SCD1 mRNA in liver of rats fed PUFA-supplemented fat free diet; settings: rat liver RNA; female Wistar rats, fat free diet 2 weeks, then fatty acid 5% (w/w) in diet 2 weeks; ± standard deviation of three rats; normalized for 18S; fat free = 100
Excerpt: The present inventors have identified genes that were modulated or regulated by dietary fat using a differential display technique (Liang P. and Pardee A. B., 1992, Science, 257: 967-971). Groups of female Wistar rats were fed fat free diet for two weeks. After two weeks all groups but one (controls) were supplemented with highly purified PUFAs for an additional two weeks. The rats were sacrificed and tissues were removed to obtain RNA for differential display and Northern blotting. Differential display identified genes regulated by dietary fat by comparing mRNA populations from rat liver. For the study, the rats were divided into six groups and fed fat free diet for 14 days. Each group was fed fat free diet for an additional two weeks with the following supplements: group 1-no supplement (fat free control); group 2-linoleic acid (LA, 18:2n-6); group 3-gamma-linolenic acid (GLA, 18:3n-6); group 4-alpha-linolenic acid (ALA, 18:3n-3); group 5-eicosapentaenoic acid (EPA, 20:5n-3) and group 6-docosahexaenoic acid (DHA, 22:6n-3). Fatty acids were administered in the diet at a fatty acid-specific concentration of 5% (w/w), as described in Example 1. The rats were fed ad libitum. […] The rats were randomly divided into 6 groups and fed fat free diet (Teklad #94013). After 2 weeks, groups 2-6 were fed diets supplemented with highly purified polyunsaturated fatty acids for an additional 2 weeks. The concentration of the specific fatty acid used for each group was 5% (w/w) of the total diet preparation. The experimental design is provided below. Diets were prepared by mixing the oils into the fat free diet. The mixed diet was stored at -20° C. under a nitrogen atmosphere to prevent fatty acid oxidation. Dietary feedings were provided at the same time each day. Diet preparations are shown below. Rats ([…]) were sacrificed via cardiac puncture under anesthesia. The livers were perfused with saline, excised and frozen in liquid nitrogen in preparation for RNA extraction. Total RNA from 0.4 g of each liver was isolated as per manufacturer's protocol using Trizol Reagent (Gibco BRL). […]

G6PD = test: Northern blot quantification of G6PD mRNA in liver of rats fed PUFA-supplemented fat free diet; settings: rat liver RNA; female Wistar rats, fat free diet 2 weeks, then fatty acid 5% (w/w) in diet 2 weeks; ± standard deviation of three rats; not normalized for 18S; fat free = 100
Excerpt: as §1

ApoA-1 = test: Northern blot quantification of ApoA-1 mRNA in liver of rats fed PUFA-supplemented fat free diet; settings: rat liver RNA; female Wistar rats, fat free diet 2 weeks, then fatty acid 5% (w/w) in diet 2 weeks; ± standard deviation of three rats; normalized for 18S; fat free = 100
Excerpt: as §1

FAS = test: Northern blot quantification of FAS mRNA in liver of rats fed PUFA-supplemented fat free diet; settings: rat liver RNA; female Wistar rats, fat free diet 2 weeks, then fatty acid 5% (w/w) in diet 2 weeks; ± standard deviation of three rats; normalized for 18S; fat free = 100
Excerpt: as §1

Spot-14 = test: Northern blot quantification of Spot-14 mRNA in liver of rats fed PUFA-supplemented fat free diet; settings: rat liver RNA; female Wistar rats, fat free diet 2 weeks, then fatty acid 5% (w/w) in diet 2 weeks; ± standard deviation of three rats; normalized for 18S; fat free = 100
Excerpt: as §1

METP = test: Northern blot quantification of METP mRNA in liver of rats fed PUFA-supplemented fat free diet; settings: rat liver RNA; female Wistar rats, fat free diet 2 weeks, then fatty acid 5% (w/w) in diet 2 weeks; ± standard deviation of three rats; normalized for 18S; EPA = 100, fat free = 10 ± 5
Excerpt: as §1

COMT = test: Northern blot quantification of COMT mRNA in liver of rats fed PUFA-supplemented fat free diet; settings: rat liver RNA; female Wistar rats, fat free diet 2 weeks, then fatty acid 5% (w/w) in diet 2 weeks; ± standard deviation of three rats; normalized for 18S; fat free = 100
Excerpt: as §1

[1] = tested on: delta-3, delta-2-enoyl-CoA isomerase; test: Northern blot quantification of delta-3, delta-2-enoyl-CoA isomerase mRNA in liver of rats fed PUFA-supplemented fat free diet; settings: rat liver RNA; female Wistar rats, fat free diet 2 weeks, then fatty acid 5% (w/w) in diet 2 weeks; ± standard deviation of three rats; normalized for 18S; EPA = 100, fat free = 14 ± 18
Excerpt: as §1

A1BG = test: Northern blot quantification of A1BG mRNA in liver of rats fed PUFA-supplemented fat free diet; settings: rat liver RNA; female Wistar rats, fat free diet 2 weeks, then fatty acid 5% (w/w) in diet 2 weeks; ± standard deviation of three rats; not normalized for 18S; DHA = 100, fat free = 7 ± 9
Excerpt: as §1

GPAT = test: Northern blot quantification of GPAT mRNA in liver of rats fed PUFA-supplemented fat free diet; settings: rat liver RNA; female Wistar rats, fat free diet 2 weeks, then fatty acid 5% (w/w) in diet 2 weeks; ± standard deviation of three rats; normalized for 18S; fat free = 100
Excerpt: as §1

[2] = tested on: mRNA populations from rat liver; test: Differential display of mRNA populations from liver of rats fed PUFA-supplemented fat free diet; settings: preliminary differential display studies
Excerpt: The present inventors have identified genes that were modulated or regulated by dietary fat using a differential display technique (Liang P. and Pardee A. B., 1992, Science, 257: 967-971). Groups of female Wistar rats were fed fat free diet for two weeks. After two weeks all groups but one (controls) were supplemented with highly purified PUFAs for an additional two weeks. The rats were sacrificed and tissues were removed to obtain RNA for differential display and Northern blotting. Differential display identified genes regulated by dietary fat by comparing mRNA populations from rat liver. For the study, the rats were divided into six groups and fed fat free diet for 14 days. Each group was fed fat free diet for an additional two weeks with the following supplements: group 1—no supplement (fat free control); group 2—linoleic acid (LA, 18:2n-6); group 3—gamma-linolenic acid (GLA, 18:3n-6); group 4—alpha-linolenic acid (ALA, 18:3n-3); group 5—eicosapentaenoic acid (EPA, 20:5n-3) and group 6—docosahexaenoic acid (DHA, 22:6n-3). Fatty acids were administered in the diet at a fatty acid-specific concentration of 5% (w/w), as described in Example 1. The rats were fed ad libitum. The protocol used in the present differential display experiment is based on, and closely followed, the Clontech Delta Differential Display Kit (Clontech Catalog No. K1810-1). […]

SMILES | quantification of the Northern blots, SCD2 (SCD2) [%] | quantification of the Northern blots, INSIG1 (INSIG1) [%] | quantification of the Northern blots, FTF1 (FTF1) [%] | quantification of the Northern blots, GLOL (GLOL) [%] | quantification of the Northern blots, SCD1 (SCD1) [%] | quantification of the Northern blots, G6PD (G6PD) [%] | quantification of the Northern blots, ApoA-1 (ApoA-1) [%] | quantification of the Northern blots, FAS (FAS) [%] | quantification of the Northern blots, Spot-14 (Spot-14) [%] | quantification of the Northern blots, METP (METP) [%] | quantification of the Northern blots, COMT (COMT) [%] | quantification of the Northern blots, delta-3, delta-2-enoyl-CoA isomerase [1] [%] | quantification of the Northern blots, A1BG (A1BG) [%] | quantification of the Northern blots, GPAT (GPAT) [%] | differences in differential display versus fat free control [2]
CC/C=C\C/C=C\C/C=C\C/C=C\C/C=C\C/C=C\CCC(=O)O [DHA, docosahexaenoic acid] | 4 ± 1 | 13 ± 11 | 13 ± 12 | 36 ± 17 | 1 ± 1 | 19 ± 7 | 12 ± 1 | 27 ± 21 | 24 ± 18 | 80 ± 28 | 49 ± 3 | 87 ± 2 | 100 ± 64 | 26 ± 15 | 
CCCCC/C=C\C/C=C\C/C=C\CCCCC(=O)O [GLA, gamma-linolenic acid] | 11 ± 6 | 11 ± 2 | 4 ± 8 | 37 ± 11 | 6 ± 8 | 8 ± 9 | 32 ± 8 | 17 ± 12 | 12 ± 7 | 78 ± 12 | 45 ± 23 | 33 ± 15 | 14 ± 10 | 15 ± 13 | 
CCCCC/C=C\C/C=C\CCCCCCCC(=O)O [LA, linoleic acid] | 63 ± 15 | 49 ± 12 | 56 ± 15 | 64 ± 6 | 63 ± 20 | 42 ± 27 | 90 ± 23 | 47 ± 40 | 50 ± 6 | 37 ± 7 | 59 ± 6 | 29 ± 27 | 52 ± 47 | 52 ± 5 | no differences
CC/C=C\C/C=C\C/C=C\C/C=C\C/C=C\CCCC(=O)O [EPA, eicosapentaenoic acid] | 2 ± 1 | 25 ± 3 | 10 ± 7 | 29 ± 15 |  | 15 ± 14 | 25 ± 4 | 17 ± 14 | 19 ± 25 | 100 ± 16 | 50 ± 4 | 100 ± 35 | 32 ± 30 | 14 ± 10 | 
